# Measurements from patent US20230310356A1, “COMPOSITION FOR PREVENTING, AMELIORATING, OR TREATING BRAIN DAMAGE AND MILD COGNITIVE IMPAIRMENT COMPRISING GLUTAMINE AS EFFECTIVE COMPONENT” (INDUSTRY-ACADEMIC COOPERATION FOUNDATION GYEONGSANG …, priority 2020, published 2023).
# Entries after “also recorded” stand apart in the source; their conditions may differ.
# What was measured:
# [1] = system: mouse with cognitive impairment caused by chronic immobilization stress (CIS); test: ORT-OLT after oral administration of glutamine following cognitive impairment caused by CIS; assay type: in vivo; conditions: 2 weeks CIS, then oral glutamine 45 mg/kg bodyweight/day for 1 week
# Method: After the oral administration of glutamine following an occurrence of cognitive impairment that has been caused by chronic immobilization stress (CIS), the effect of treating cognitive impairment was examined. Two weeks after applying CIS, the cognitive ability was tested by ORT-OLT. After that, while orally administering glutamine for 1 week (45 mg glutamine/kg bodyweight/day), a change in cognitive ability was examined from Day 4 (i.e., ORT-OLT were carried out from Day 4 to Day 7).
# [2] = system: p47phox; test: Double-IHC protein expression after CIS and glutamine supplementation: p47phox; assay type: in vivo, mouse; conditions: microglial cells in infralimbic cortex and hippocampal CA1 region; glutamine supplementation diet vs stress group
# Method: Control (CTL) is a group which received normal diet (common diet with nutritional balance) without any stress, CTL+Gln group is a normal diet group supplemented with glutamine (150 mg/kg of feed) and without any stress, STR is a normal diet group under stress, and STR+Gln group is a normal diet group supplemented with glutamine (150 mg/kg of feed) under stress. The stress group (STR) was individually brought by force to a restrainer for 2 hours every day (i.e., between 2 PM and 4 PM) so that the animals are applied with chronic immobilization stress for 15 days. To determine the specific changes in the brain tissues after glutamine supplementation, double staining was carried out with a cell marker so that the proteins related to a change in ROS/RNS content (i.e., iNOS; nNOS; and p47phox and p67phox as a subunit of NOX) with cell markers are analyzed by double-IHC (immunohistochemistry). Twenty-four hours after applying the last stress, the mouse was anesthetized with avertin, and perfused with PBS (pH 7.4) and 4% formaldehyde. After that, the brain was removed, fixed, and cut to a thickness with 40 μm. […]
# [3] = system: amyloid beta 42 (Aβ42); test: Aβ42 in neuronally derived blood exosome (NDE) by ELISA after glutamine diet; assay type: in vivo, mouse; conditions: female 3×TG-AD, 3×TG+Gln vs 3×TG, after test with 6-months old animals
# Method: As an animal model for cognitive ability evaluation, a 7-weeks old 3×TG-AD female mouse (8 mice. model of Alzheimer's disease) and a C57BL/6 female mouse (10 mice, control) were selected. The animals of each type were divided into 2 groups, and each group was provided with regular animal feed (i.e., normal diet, ND) or glutamine feed (Gln). The glutamine diet group was allowed to consume the feed containing 150 mg glutamine/kg diet, from 2-months old stage to the end of test (i.e., 6 to 7-months old stage). Health state of the animal was checked by measuring, once a week, the bodyweight of the animal and food intake (FIG. 7A). After the cognitive ability test with 6-months old animals, the mouse was sacrificed using carbon dioxide and a change in neuronally derived blood exosome (NDE) protein was determined. Total exosomes were separated from serum, and, after a reaction for 1 hour with anti-CD171 antibody, they were reacted for 1 hour with streptavidin-fused magnetic beads. After that, elution was carried out using 0.05 M glycine-HCl (pH 3.0), and then addition of 1 M Tris-HCl (pH 8.0) was made. Analysis was then made by using amyloid beta 42 (Aβ42) mouse ELISA kit.
# [4] = system: C57BL/6 female mouse (NonTg); test: ORT cognitive ability test in normal control mouse with glutamine diet; assay type: in vivo; conditions: until the 6-months old stage, 150 mg glutamine/kg diet
# Method: As an animal model for cognitive ability evaluation, a 7-weeks old 3×TG-AD female mouse (8 mice. model of Alzheimer's disease) and a C57BL/6 female mouse (10 mice, control) were selected. The animals of each type were divided into 2 groups, and each group was provided with regular animal feed (i.e., normal diet, ND) or glutamine feed (Gln). The glutamine diet group was allowed to consume the feed containing 150 mg glutamine/kg diet, from 2-months old stage to the end of test (i.e., 6 to 7-months old stage). Health state of the animal was checked by measuring, once a week, the bodyweight of the animal and food intake (FIG. 7A). Cognitive ability test of the mouse as an animal model established above was determined by ORT (object recognition test). The animal was habituated in a box for 2 days. On Day 3, it was allowed to explore two identical objects for 10 minutes. On Day 4, one of the two objects was replaced with a novel object, and then, the animal was allowed to explore further for 5 minutes (FIG. 7B). The time spent by animal for exploring after approaching within 1 cm from the periphery of both objects was measured. After carrying out the calculation using Formula (3) below, DI (discrimination index) was calculated and compared to each other. In the present invention, a different novel object was employed for carrying out each test. […]
compound,measurement,setting,value
NC(=O)CC[C@H](N)C(=O)O [glutamine],cognitive ability in OLT,[1],restored to the level of stress-free control group
same,cognitive ability in ORT,[1],restored to the level of stress-free control group
same,expression amount of p47phox,[2],statistically significant decrement
same,Aβ42 in NDE (neuronally derived blood exosome),[3],statistically significant decrease; also recorded: suppressed
same,cognitive ability (ORT) change caused by glutamine diet,[4],no change
